Legend:
Type in all cases: in vivo
[1] = system: Aster Leafhopper [Macrosteles fascifrens (Stal)]; assay: Aster leafhopper insecticidal test; conditions: adults/nymphs, percent in solution; 48 hours
In short: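 LC50 values, given as percent of test compound in the dip solution, were derived from dosage-mortality curves over concentrations from 0.05% downward. Mortality was counted 48 hours after ten leafhopper adults/nymphs were enclosed on treated seedlings. The seedlings were oats, about 10 cm tall, briefly dipped in 50-50 acetone-water.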

[2] = system: Tobacco Budworm [Heliothis virescens (Fabricius)] eggs; assay: Tobacco budworm egg test; conditions: 2-day old eggs, percent in solution
In short: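 Mortality of dipped eggs served as read-out, recorded after untreated controls hatched and began feeding. Treatments used acetone solutions from 0.1% downward, with eggs incubated at 78° F; LC50 is expressed as percent of compound in the solution.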

[3] = system: Tobacco Budworm [Heliothis virescens (Fabricius)] larvae; assay: Tobacco budworm contact test; conditions: second-instar larvae, percent in solution, 5 days
Description: The compounds in Tables 1 and 2 above were tested for insecticidal activity using the following testing procedures. LC50 values, based on the results of these tests and calculated according to dosage-mortality curves, are expressed in Table 3.
Tobacco Budworm [Heliothis virescens (Fabricius)]:
(a) Contact: Test compounds were diluted in a 50-50 acetone-water solution. Cotton (Gossypium sp.) cotyledons were immersed in the test solutions for 2-3 seconds and placed on a wire screen to dry. The dried leaves were placed in petri dishes containing a moistened piece of filter paper and infested with 5 second-instar tobacco budworm larvae. The dishes were placed in a high humidity chamber for 5 days, and percent mortality of the larvae recorded. Test concentrations ranged from 0.1% downward. The LC-50 values are expressed below in Table 3 under the heading "TBW-C" in terms of percent of the test compound in the solution.

[4] = system: Housefly [Musca domestica]; assay: Housefly insecticidal test; conditions: μg per 25 female flies; mortality after 48 hours
In short: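 LC50 (μg compound per 25 female flies) derives from dosage-mortality curves of 48 h kill. Flies, females 1-2 days old, were held 25 per cage over a dish coated with dried acetone deposit, starting at 100 μg per cage and descending.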

[5] = system: Maize weevil [Sitophilus Zeamais (Motschulsky)]; assay: Maize weevil insecticidal test; conditions: adult weevils, percent in solution; 48 hours
In short: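 LC50, in percent of compound in solution, was derived from dosage-mortality curves after 48 h at about 25 °C. Ten adult weevils per container fed on four corn seeds briefly immersed in acetone:water (50:50) solutions of up to 0.01% and dried.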

[6] = system: Cabbage Looper [Trichoplusia ni (Hubner)]; assay: Cabbage looper insecticidal test; conditions: second-instar larvae, percent in solution; 3-5 days
In short: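 Steps: dilute compound in 50-50 acetone-water from 0.1% downward; immerse cotyledon pieces 2-3 s and dry; place in humid petri dishes with five second-instar larvae; record mortality at 3-5 days. Dosage-mortality curves yield LC50 as percent in solution.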

CC1(C(=Nc2ccc(Cl)cc2)OCc2cccc(Oc3ccccc3)c2)CC1 [Compound 5]
LC50, LH [1]: > 0.05%
LC50, TBW, E (TBW-E) [2]: 0.05%
LC50, TBW, C (TBW-C) [3]: 0.008%
LC50, HF [4]: 21 µg
LC50, MW [5]: > 0.01%
LC50, CL [6]: 0.005%

CC(C)(C)C(=Nc1ccc(Cl)cc1)OCc1cccc(Oc2ccccc2)c1 [Compound 30]
LC50, LH [1]: > 0.05%
LC50, TBW, E (TBW-E) [2]: > 0.1%
LC50, TBW, C (TBW-C) [3]: 0.01%
LC50, HF [4]: > 100 µg
LC50, MW [5]: > 0.01%
LC50, CL [6]: 0.003%

CC(C)C(=Nc1ccc(Cl)c(Cl)c1)OCc1cccc(Oc2ccc(F)cc2)c1 [Compound 37]
LC50, LH [1]: 0.002%
LC50, TBW, E (TBW-E) [2]: 0.014%
LC50, TBW, C (TBW-C) [3]: 0.0005%
LC50, HF [4]: 21 µg
LC50, MW [5]: 0.009%
LC50, CL [6]: 0.0004%

CC(C)C(=Nc1c(F)c(F)c(F)c(F)c1F)OCc1cccc(Oc2ccccc2)c1 [Compound 51]
LC50, LH [1]: 0.001%
LC50, TBW, E (TBW-E) [2]: 0.067%
LC50, TBW, C (TBW-C) [3]: 0.0025%
LC50, HF [4]: 25 µg
LC50, CL [6]: 0.001%

CC(C)C(=Nc1ccc(F)c(F)c1)OCc1cccc(Oc2ccc(F)cc2)c1 [Compound 60]
LC50, LH [1]: 0.002%
LC50, TBW, E (TBW-E) [2]: 0.017%
LC50, TBW, C (TBW-C) [3]: 0.0009%
LC50, HF [4]: 8 µg
LC50, MW [5]: 0.0075%
LC50, CL [6]: 0.001%

Cc1ccc(N=C(OCc2cccc(Oc3ccccc3)c2)C(C)C)cc1F [Compound 75]
LC50, LH [1]: 0.0008%
LC50, TBW, E (TBW-E) [2]: 0.01%
LC50, TBW, C (TBW-C) [3]: 0.0075%
LC50, HF [4]: 5 µg
LC50, CL [6]: 0.0025%

CC(C)C(=Nc1ccc(F)c(C(F)(F)F)c1)OCc1cccc(Oc2ccc(F)cc2)c1 [Compound 120]
LC50, LH [1]: 0.0003%
LC50, TBW, E (TBW-E) [2]: 0.04%
LC50, TBW, C (TBW-C) [3]: 0.0025%
LC50, HF [4]: 14 µg
LC50, MW [5]: > 0.01%
LC50, CL [6]: 0.00015%

CCOc1ccc(N=C(OCc2cccc(Oc3ccccc3)c2)C(Cl)Cl)cc1 [Compound 138]
LC50, LH [1]: > 0.05%
LC50, TBW, E (TBW-E) [2]: 0.08%
LC50, TBW, C (TBW-C) [3]: 0.015%
LC50, HF [4]: 19 µg
LC50, MW [5]: > 0.01%
LC50, CL [6]: 0.005%

COc1ccccc1N=C(OCc1cccc(Oc2ccccc2)c1)C(C)C [Compound 145]
LC50, LH [1]: > 0.05%
LC50, TBW, E (TBW-E) [2]: > 0.1%
LC50, TBW, C (TBW-C) [3]: 0.05%
LC50, HF [4]: > 100 µg
LC50, CL [6]: 0.05%

CC(C)C(=Nc1cccc(Cl)c1)OCc1cccc(Oc2ccc(F)cc2)c1 [Compound 194]
LC50, LH [1]: 0.0005%
LC50, TBW, E (TBW-E) [2]: 0.04%
LC50, TBW, C (TBW-C) [3]: 0.0017%
LC50, HF [4]: 10 µg
LC50, MW [5]: > 0.01%
LC50, CL [6]: 0.0005%

CC(C)C(=Nc1ccc(F)c(Cl)c1)OCc1cccc(Oc2ccc(C#N)cc2)c1 [Compound 196]
LC50, LH [1]: > 0.05%
LC50, TBW, E (TBW-E) [2]: > 0.1%
LC50, TBW, C (TBW-C) [3]: 0.001%
LC50, HF [4]: 17 µg
LC50, MW [5]: > 0.01%
LC50, CL [6]: 0.0006%

CC(C)C(=Nc1cc(F)cc(F)c1)OCc1cccc(Oc2ccc(F)cc2)c1 [Compound 199]
LC50, TBW, E (TBW-E) [2]: > 0.1%
LC50, TBW, C (TBW-C) [3]: 0.003%
LC50, HF [4]: 8 µg
LC50, MW [5]: > 0.01%
LC50, CL [6]: 0.0006%

CC(C)C(=Nc1cccc(C(F)(F)F)c1)OCc1cccc(Oc2ccc(F)cc2)c1 [Compound 202]
LC50, LH [1]: 0.0003%
LC50, TBW, E (TBW-E) [2]: > 0.1%
LC50, TBW, C (TBW-C) [3]: 0.0007%
LC50, HF [4]: 18 µg
LC50, MW [5]: > 0.01%
LC50, CL [6]: 0.00024%

CC(C)(C)C(=Nc1ccc(F)c(Cl)c1)OCc1cccc(Oc2ccc(F)cc2)c1 [Compound 204]
LC50, TBW, E (TBW-E) [2]: > 0.1%
LC50, TBW, C (TBW-C) [3]: 0.004%
LC50, HF [4]: > 100 µg
LC50, MW [5]: > 0.01%
LC50, CL [6]: 0.0023%

CC(C)C(=Nc1ccc(F)cc1F)OCc1cccc(Oc2ccc(F)cc2)c1 [Compound 209]
LC50, LH [1]: 0.001%
LC50, TBW, E (TBW-E) [2]: 0.1%
LC50, TBW, C (TBW-C) [3]: 0.005%
LC50, HF [4]: 17 µg
LC50, MW [5]: > 0.01%
LC50, CL [6]: 0.0007%

CCC(C)C(=Nc1ccc(F)c(Cl)c1)OCc1cccc(Oc2ccc(F)cc2)c1 (centres unmarked) [Compound 210]
LC50, TBW, E (TBW-E) [2]: 0.045%
LC50, TBW, C (TBW-C) [3]: 0.0015%
LC50, HF [4]: 35 µg
LC50, MW [5]: > 0.01%
LC50, CL [6]: 0.00028%

CC(C)C(=Nc1ccc2c(c1)OC(C)(C)O2)OCc1cccc(Oc2ccc(F)cc2)c1 [Compound 219]
LC50, TBW, E (TBW-E) [2]: 0.027%
LC50, TBW, C (TBW-C) [3]: 0.004%
LC50, HF [4]: 50 µg
LC50, MW [5]: > 0.01%
LC50, CL [6]: 0.00025%

CC(C)C(=Nc1ccc(Br)cc1)OCc1cccc(Oc2ccc(F)cc2)c1 [Compound 226]
LC50, LH [1]: 0.002%
LC50, TBW, E (TBW-E) [2]: 0.1%
LC50, TBW, C (TBW-C) [3]: 0.001%
LC50, HF [4]: 16 µg
LC50, MW [5]: 0.009%
LC50, CL [6]: 0.0005%

CC(C)C(=Nc1ccc(I)cc1)OCc1cccc(Oc2ccc(F)cc2)c1 [Compound 234]
LC50, LH [1]: 0.003%
LC50, TBW, E (TBW-E) [2]: 0.09%
LC50, TBW, C (TBW-C) [3]: 0.0013%
LC50, HF [4]: 38 µg
LC50, MW [5]: > 0.01%
LC50, CL [6]: 0.00045%

CC(C)C(=Nc1ccc(F)c(Cl)c1)OCc1cccc(Oc2ccc(Br)cc2)c1 [Compound 238]
LC50, LH [1]: > 0.05%
LC50, TBW, E (TBW-E) [2]: 0.05%
LC50, TBW, C (TBW-C) [3]: 0.0004%
LC50, HF [4]: 25 µg
LC50, MW [5]: > 0.01%
LC50, CL [6]: 0.0002%

CC(C)C(=Nc1ccc(F)c(Br)c1)OCc1cccc(Oc2ccc(F)cc2)c1 [Compound 253]
LC50, LH [1]: 0.003%
LC50, TBW, E (TBW-E) [2]: > 0.1%
LC50, TBW, C (TBW-C) [3]: 0.0005%
LC50, HF [4]: 10 µg
LC50, MW [5]: > 0.01%
LC50, CL [6]: 0.00013%

CC(C)C(=Nc1cccc(C(F)(F)F)c1)OCc1ccc(F)c(Oc2ccc(Cl)cc2)c1 [Compound 266]
LC50, TBW, E (TBW-E) [2]: 0.06%
LC50, TBW, C (TBW-C) [3]: 0.0007%
LC50, HF [4]: 10 µg
LC50, CL [6]: 0.00016%

CC(C)C(=Nc1ccc(F)c(C(F)(F)F)c1)OCc1ccc(F)c(Oc2ccc(Cl)cc2)c1 [Compound 297]
LC50, LH [1]: 0.0001%
LC50, TBW, E (TBW-E) [2]: 0.025%
LC50, TBW, C (TBW-C) [3]: 0.00075%
LC50, HF [4]: 23 µg
LC50, MW [5]: 0.0071%
LC50, CL [6]: 0.00027%

C=C(C)C(=Nc1ccc(C(F)(F)F)cc1)OCc1ccc(F)c(Oc2ccc(Cl)cc2)c1 [Compound 432]
LC50, TBW, E (TBW-E) [2]: 0.032%
LC50, TBW, C (TBW-C) [3]: < 0.1%
LC50, HF [4]: < 100 µg
LC50, MW [5]: > 0.01%
LC50, CL [6]: 0.0012%

CC(C)C(=Nc1ccc(F)c(Cl)c1)OCc1cccc(Oc2ccccc2)n1 [Compound 462]
LC50, LH [1]: 0.001%
LC50, TBW, E (TBW-E) [2]: 0.04%
LC50, TBW, C (TBW-C) [3]: 0.0025%
LC50, HF [4]: 7 µg
LC50, MW [5]: > 0.05%
LC50, CL [6]: 0.001%

C#CCc1c(F)c(F)c(COC(=Nc2ccc(F)c(Cl)c2)C(C)C)c(F)c1F [Compound 520]
LC50, LH [1]: 0.0003%
LC50, TBW, E (TBW-E) [2]: > 0.1%
LC50, TBW, C (TBW-C) [3]: 0.00075%
LC50, HF [4]: 5.5 µg
LC50, MW [5]: 0.0042%
LC50, CL [6]: > 0.1%
